Measured values taken from patent US5391540A, “Substituted pyridine compounds” (Rohm and Haas Company, priority 1993, dated 1995).
Values joined by “and” are separate entries in the source; they are usually repeats but may differ in a detail not shown here. Equal entries are not always repeated.

Columns and labels:
Type in all cases: in vivo
Seedling Johnsongrass = assay: Pre-emergent herbicidal activity (Table A); details: Sorghum halepense, pre-emergence, Sejg, 11.2 kg/ha, 10-14 days, read-out: herbicidal rating (% inhibition)
Procedure, shortened: (§1)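 Seeds were sown on compacted topsoil and covered with soil into which test compound (in acetone or water carrier) had been mixed at 11.2 kg/ha. Pans were kept watered on a greenhouse bench, and percent inhibition was scored as a rating about 10-14 days (usually 11) after treatment.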

Wild Buckwheat = assay: Pre-emergent herbicidal activity (Table A); details: Fallopia convolvulus, pre-emergence, Wibw, 11.2 kg/ha, 10-14 days, read-out: herbicidal rating (% inhibition)
Procedure, shortened: as §1

Annual Bluegrass = assay: Pre-emergent herbicidal activity (Table A); details: pre-emergence, Anbg, 11.2 kg/ha, 10-14 days, read-out: herbicidal rating (% inhibition)
Procedure, shortened: as §1

Indian Mustard = assay: Pre-emergent herbicidal activity (Table A); details: Brassica juncea, pre-emergence, Inmu, 11.2 kg/ha, 10-14 days, read-out: herbicidal rating (% inhibition)
Procedure, shortened: as §1

Rice = assay: plant injury after spraying emerged plants (Table D); set-up: scale not given here
Procedure, shortened: (§2)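 Seeds or vegetative propagules of annual and perennial species were pressed into steam-sterilized silt loam, covered with 1.27 cm of topsoil/peat-moss/vermiculite mix, and grown on greenhouse benches with subirrigation. Injury was scored on emerged plants after spraying.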

Vele = assay: as above; set-up: scale not given here
Procedure, shortened: as §2

Prmi = assay: as above; set-up: scale not given here
Procedure, shortened: as §2

Wibw = assay: as above; set-up: scale not given here
Procedure, shortened: as §2

Hese = assay: as above; set-up: scale not given here
Procedure, shortened: as §2

Cotz = assay: as above; set-up: scale not given here
From the text: (§3) Topsoil (silt loam) is sieved through a screen having 1.27 cm openings. In some of the tests the soil was mixed with fertilizer (1225 g/cu. m of 12/5/9 containing isobutylidene diurea), while in other tests the fertilizer was omitted. This mixture is steam sterilized and then placed in aluminum pans 6.985 cm deep having ten holes in the bottom each 0.635 cm in diameter. The soil mixture is compacted to a depth of 1.27 cm. from the top of the pan. A predetermined number of seeds of each of several dicotyledonous and monocotyledonous annual plant species and/or vegetative propagules for the perennial plant species are placed on the soil and pressed into the soil surface. The seeds and/or vegetative propagules are covered with 1.27 cm of a mixture of 50% topsoil and 50% of a mixture of Canadian sphagnum peat moss, vermiculite and a wetting agent. The pans are then placed on a capillary mat on a greenhouse bench and subirrigated as needed. After the plants reach the desired stage (9 to 14 days, 1 to 3 true leaf stage), each pan (except the control pans) is removed to a spraying chamber and sprayed by means of an atomizer, operating at a spray pressure of 170.3 kPa ([…]) at the application rates noted in Table D. In the spray solution is an amount of an emulsifying agent mixture (35% butylamine salt of dodecylbenzenesulfonic acid and 65% tall oil condensed with ethylene oxide in the ratio of 11 mols of ethylene oxide/mol of tall oil) to give a spray solution or suspension. The spray solution or suspension contains a sufficient amount of the candidate chemical in order to give application rates of the active ingredient corresponding to those shown in Table D below while applying a total amount of solution or suspension equivalent to 1870 L/Ha (200 gallons/acre). The pans are returned to the greenhouse and watered as before and the injury to the plants as compared to the control pans is observed at approximately 10-14 days (usually 11 days).
(§4) In the following Table D the legends used to identify the plant species are the same as those used in the preceding Table B.

Rape = assay: as above; set-up: scale not given here
From the text: as §3, §4

Jiwe = assay: as above; set-up: scale not given here
From the text: as §3, §4

Structure (SMILES): COC(=O)c1c(OC)nc(C(F)(F)F)c(C(=O)n2ccc(F)n2)c1C1CCC1 [Compound 140, 3-pyridinecarboxylic acid, 4-cyclobuty1-5-[(3-fluoro-1H-pyrazo1-1-yl)carbonyl]-2-methoxy-6-(trifluoromethyl)-, methyl ester]
- inhibition at 11200 g/ha (Seedling Johnsongrass): 75 to 100%
- inhibition at 11200 g/ha (Wild Buckwheat): 75 to 100%
- inhibition at 11200 g/ha (Annual Bluegrass): 75 to 100%
- inhibition at 11200 g/ha (Indian Mustard): 75 to 100%
- plant injury rating, Rice (Rice; 0.2803 kg/ha): 0
- plant injury rating, Rice (Rice; 1.1210 kg/ha): 0
- plant injury rating, Rice (Rice; 5.6050 kg/ha): 0
- plant injury rating, Vele (Vele; 0.2803 kg/ha): 3
- plant injury rating, Vele (Vele; 1.1210 kg/ha): 2
- plant injury rating, Vele (Vele; 5.6050 kg/ha): 2
- plant injury rating, Prmi (Prmi; 0.2803 kg/ha): 0
- plant injury rating, Prmi (Prmi; 1.1210 kg/ha): 0
- plant injury rating, Prmi (Prmi; 5.6050 kg/ha): 0
- plant injury rating, Wibw (Wibw; 0.2803 kg/ha): 0
- plant injury rating, Wibw (Wibw; 5.6050 kg/ha): 1
- plant injury rating, Hese (Hese; 0.2803 kg/ha): 3
- plant injury rating, Hese (Hese; 1.1210 kg/ha): 3
- plant injury rating, Hese (Hese; 5.6050 kg/ha): 3
- plant injury rating, Cotz (Cotz; 1.1210 kg/ha): 1
- plant injury rating, Cotz (Cotz; 5.6050 kg/ha): 1
- plant injury rating, Rape (Rape; 0.2803 kg/ha): 3
- plant injury rating, Rape (Rape; 1.1210 kg/ha): 3
- plant injury rating, Rape (Rape; 5.6050 kg/ha): 3

Structure (SMILES): COC(=O)c1c(OC)nc(C(F)(F)Cl)c(C(=O)OC)c1CC(C)C [Compound 30, 3,5-pyridinedicarboxylic acid, 2-(chlorodifluoromethyl)-6-methoxy-4-(2-methylpropyl)-, dimethyl ester]
- plant injury rating, Rice (Rice; 0.5605 kg/ha): 0
- plant injury rating, Rice (Rice; 1.1210 kg/ha): 0
- plant injury rating, Rice (Rice; 2.8025 kg/ha): 0
- plant injury rating, Rice (Rice; 5.6050 kg/ha): 0
- plant injury rating, Rice (Rice; 8.4075 kg/ha): 0
- plant injury rating, Rice (Rice; 11.2100 kg/ha): 0
- plant injury rating, Vele (Vele; 0.5605 kg/ha): 1
- plant injury rating, Vele (Vele; 1.1210 kg/ha): 1
- plant injury rating, Vele (Vele; 2.8025 kg/ha): 1
- plant injury rating, Vele (Vele; 5.6050 kg/ha): 1
- plant injury rating, Vele (Vele; 8.4075 kg/ha): 2
- plant injury rating, Vele (Vele; 11.2100 kg/ha): 1
- plant injury rating, Prmi (Prmi; 0.5605 kg/ha): 0
- plant injury rating, Prmi (Prmi; 1.1210 kg/ha): 0
- plant injury rating, Prmi (Prmi; 2.8025 kg/ha): 1
- plant injury rating, Prmi (Prmi; 5.6050 kg/ha): 0
- plant injury rating, Prmi (Prmi; 8.4075 kg/ha): 0
- plant injury rating, Prmi (Prmi; 11.2100 kg/ha): 0
- plant injury rating, Wibw (Wibw; 0.5605 kg/ha): 1
- plant injury rating, Wibw (Wibw; 1.1210 kg/ha): 1
- plant injury rating, Wibw (Wibw; 2.8025 kg/ha): 1
- plant injury rating, Wibw (Wibw; 5.6050 kg/ha): 1
- plant injury rating, Wibw (Wibw; 8.4075 kg/ha): 1
- plant injury rating, Wibw (Wibw; 11.2100 kg/ha): 2
- plant injury rating, Hese (Hese; 0.5605 kg/ha): 1
- plant injury rating, Hese (Hese; 1.1210 kg/ha): 1
- plant injury rating, Hese (Hese; 2.8025 kg/ha): 1
- plant injury rating, Hese (Hese; 5.6050 kg/ha): 1
- plant injury rating, Hese (Hese; 8.4075 kg/ha): 2
- plant injury rating, Hese (Hese; 11.2100 kg/ha): 1

Structure (SMILES): COC(=O)c1c(OC)nc(C(F)(F)F)c(C2=NCCS2)c1CC(C)C [Compound 50, 3-pyridinecarboxylic acid, 5-(4,5-dihydro-2-thiazolyl)-2-methoxy-4-(2-methylpropyl)-6-(trifluoromethyl)-, methyl ester]
- plant injury rating, Rice (Rice; 0.0701 kg/ha): 0
- plant injury rating, Rice (Rice; 0.2803 kg/ha): 0
- plant injury rating, Rice (Rice; 1.1210 kg/ha): 1
- plant injury rating, Rice (Rice; 5.3808 kg/ha): 0
- plant injury rating, Vele (Vele; 0.0701 kg/ha): 2
- plant injury rating, Vele (Vele; 5.3808 kg/ha): 3
- plant injury rating, Prmi (Prmi; 0.0701 kg/ha): 0
- plant injury rating, Prmi (Prmi; 0.2803 kg/ha): 1
- plant injury rating, Wibw (Wibw; 0.0701 kg/ha): 1
- plant injury rating, Wibw (Wibw; 0.2803 kg/ha): 3
- plant injury rating, Wibw (Wibw; 5.3808 kg/ha): 3
- plant injury rating, Hese (Hese; 0.0701 kg/ha): 2
- plant injury rating, Hese (Hese; 5.3808 kg/ha): 3
- plant injury rating, Cotz (Cotz; 0.0701 kg/ha): 1
- plant injury rating, Cotz (Cotz; 0.2803 kg/ha): 2
- plant injury rating, Cotz (Cotz; 5.3808 kg/ha): 3
- plant injury rating, Rape (Rape; 1.1210 kg/ha): 3
- plant injury rating, Rape (Rape; 5.3808 kg/ha): 3
- plant injury rating, Jiwe (Jiwe; 0.0701 kg/ha): 2
- plant injury rating, Jiwe (Jiwe; 0.2803 kg/ha): 2
- plant injury rating, Jiwe (Jiwe; 1.1210 kg/ha): 2 and 3
- plant injury rating, Jiwe (Jiwe; 5.3808 kg/ha): 3
